From ChEMBL document CHEMBL3045396, “Easy Preparation of Methyl 7-epi-Jasmonate and Four Stereoisomers of Methyl Cucurbate, and Assessment of the Stereogenic Effect of Jasmonate on Phytohormonal Activities” (Biosci Biotechnol Biochem, 1999)
The source made the active and inactive calls. The calls are words filed in the database; no cut-off is given here.

Experiments:
[1] = system: Lepidium sativum; assay: Phytohormonal activity against Lepidium sativum assessed as inhibition of seed germination at 100 to 1000 uM after 2 days relative to control; assay type: functional, organism-based
[2] = system: Oryza sativa; assay: Phytohormonal activity against Oryza sativa (rice) seedlings assessed as growth inhibition of second leaf sheath at 1 to 300 uM after 5 days relative to control; assay type: functional, organism-based

## CC/C=C\C[C@H]1[C@@H](CC(=O)OC)CC[C@H]1O
[1]
  inhibition: Active
[2]
  growth inhibition (GI): Active

## CC/C=C\C[C@H]1[C@@H](CC(=O)OC)CC[C@@H]1O
[1]
  inhibition: Active
[2]
  growth inhibition (GI): Active

## CC/C=C\C[C@@H]1[C@@H](CC(=O)OC)CC[C@H]1O
[1]
  inhibition: inactive
[2]
  growth inhibition (GI): inactive

## CC/C=C\C[C@H]1C(=O)CC[C@@H]1CC(=O)OC (racemic)
[1]
  inhibition: Active
[2]
  growth inhibition (GI): Active

## CC/C=C\C[C@H]1C(=O)CC[C@@H]1CC(=O)O
[2]
  growth inhibition (GI): Active

## CC/C=C\C[C@@H]1[C@@H](CC(=O)OC)CC[C@@H]1O
[1]
  inhibition: inactive
[2]
  growth inhibition (GI): inactive

## CC/C=C\C[C@H]1[C@@H](CC(=O)O)CC[C@@H]1O
[2]
  growth inhibition (GI): inactive

## CC/C=C\C[C@@H]1C(=O)CC[C@@H]1CC(=O)OC
[1]
  inhibition: Active
[2]
  growth inhibition (GI): Active
